Measured values as given in ChEMBL document CHEMBL1201862, “PubChem BioAssay data set” (2004).
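How tested: cells in 96-well plates exposed to compound for 48 hours at five concentrations. GI50 marks 50% less growth.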 The source made the active and inactive calls. No stated cut-off is given here; in the data, active = GI50 up to about 1.1 µM and inactive = higher.

What was measured:
Test in all cases: NCI tumour cell line growth inhibition, 48 h
[1] = test system: M14
[2] = test system: NCI-H23
[3] = test system: PC-3
[4] = test system: HT-29
[5] = test system: BT-549
[6] = test system: OVCAR-4
[7] = test system: RXF 393
[8] = test system: HOP-62
[9] = test system: U-251
[10] = test system: SNB-75
[11] = test system: NCI-H226
[12] = test system: MDA-MB-231
[13] = test system: CCRF-CEM
[14] = test system: UACC-62
[15] = test system: SF-268
[16] = test system: HCC 2998
[17] = test system: EKVX
[18] = test system: SK-MEL-5
[19] = test system: 786-0
[20] = test system: HCT-15
[21] = test system: Hs-578T
[22] = test system: IGROV-1
[23] = test system: NCI-H460
[24] = test system: MCF7
[25] = test system: SF-295
[26] = test system: DU-145
[27] = test system: SK-MEL-28
[28] = test system: A498
[29] = test system: NCI-H522
[30] = test system: HCT-116
[31] = test system: MOLT-4
[32] = test system: SF-539
[33] = test system: T47D
[34] = test system: OVCAR-5
[35] = test system: UACC-257
[36] = test system: KM12
[37] = test system: K562
[38] = test system: CAKI-1
[39] = test system: RPMI-8226
[40] = test system: SN12C
[41] = test system: HL-60
[42] = test system: SW-620
[43] = test system: ACHN
[44] = test system: HOP-92
[45] = test system: SK-OV-3
[46] = test system: SNB-19
[47] = test system: MDA-MB-435
[48] = test system: MDA-N
[49] = test system: Malme-3M
[50] = test system: OVCAR-8
[51] = test system: NCI/ADR-RES
[52] = test system: COLO 205
[53] = test system: SR
[54] = test system: UO-31
[55] = test system: OVCAR-3
[56] = test system: SK-MEL-2
[57] = test system: A549
[58] = test system: LOX IMVI
[59] = test system: TK-10

Compound: O=C(Nc1cc(Cl)c(I)c(Cl)c1)C(F)(F)F
- GI50 [1]: 23.2 µM (inactive)
- GI50 [2]: 26.2 µM (inactive)
- GI50 [3]: 31.1 µM (inactive)
- GI50 [4]: 19.8 µM (inactive)
- GI50 [5]: 25.9 µM (inactive)
- GI50 [6]: 31.1 µM (inactive)
- GI50 [7]: 16.7 µM (inactive)
- GI50 [8]: 31.2 µM (inactive)
- GI50 [9]: 40.4 µM (inactive)
- GI50 [10]: 20.8 µM (inactive)
- GI50 [11]: 23.1 µM (inactive)
- GI50 [12]: 30.1 µM (inactive)
- GI50 [13]: 24.8 µM (inactive)
- GI50 [14]: 20.3 µM (inactive)
- GI50 [15]: 27.1 µM (inactive)
- GI50 [16]: 20 µM (inactive)
- GI50 [17]: 18.3 µM (inactive)
- GI50 [18]: 18.7 µM (inactive)
- GI50 [19]: 29 µM (inactive)
- GI50 [20]: 18 µM
- GI50 [21]: 22.4 µM (inactive)
- GI50 [22]: 27.2 µM (inactive)
- GI50 [23]: 27.1 µM (inactive)
- GI50 [24]: 38.4 µM (inactive)
- GI50 [25]: 33.3 µM (inactive)
- GI50 [26]: 42 µM (inactive)
- GI50 [27]: 25.2 µM (inactive)
- GI50 [28]: 22.9 µM (inactive)
- GI50 [29]: 21.7 µM (inactive)
- GI50 [30]: 24.5 µM (inactive)
- GI50 [31]: 26.5 µM (inactive)
- GI50 [32]: > 10 µM (inactive)
- GI50 [33]: 25.8 µM (inactive)
- GI50 [34]: 22.8 µM (inactive)
- GI50 [35]: 45.6 µM (inactive)
- GI50 [36]: 27.5 µM (inactive)
- GI50 [37]: 28.2 µM (inactive)
- GI50 [38]: 19.9 µM (inactive)
- GI50 [39]: 31.1 µM (inactive)
- GI50 [40]: 35.5 µM (inactive)
- GI50 [41]: 19.2 µM (inactive)
- GI50 [42]: 45.3 µM (inactive)
- GI50 [43]: 30.3 µM (inactive)
- GI50 [44]: 20.3 µM (inactive)
- GI50 [45]: 31 µM (inactive)
- GI50 [46]: 35.9 µM (inactive)
- GI50 [47]: 30.3 µM (inactive)
- GI50 [48]: 35.8 µM (inactive)
- GI50 [49]: > 10 µM (inactive)
- GI50 [50]: 20.1 µM (inactive)
- GI50 [51]: 34.8 µM (inactive)
- GI50 [52]: 21.5 µM (inactive)
- GI50 [53]: 30.8 µM (inactive)
- GI50 [54]: 23.6 µM (inactive)
- GI50 [55]: 24.9 µM (inactive)

Compound: CCc1nc(N)nc(N)c1-c1ccc2nnn(O)c2c1
- GI50 [1]: > 100 µM (inactive)
- GI50 [2]: > 100 µM (inactive)
- GI50 [56]: > 100 µM (inactive)
- GI50 [3]: > 100 µM (inactive)
- GI50 [4]: > 89.1 µM (inactive)
- GI50 [5]: > 100 µM (inactive)
- GI50 [6]: > 100 µM (inactive)
- GI50 [7]: > 100 µM (inactive)
- GI50 [8]: > 100 µM (inactive)
- GI50 [9]: > 100 µM (inactive)
- GI50 [10]: > 100 µM (inactive)
- GI50 [11]: > 100 µM (inactive)
- GI50 [12]: > 100 µM (inactive)
- GI50 [13]: > 100 µM (inactive)
- GI50 [14]: > 100 µM (inactive)
- GI50 [15]: > 100 µM (inactive)
- GI50 [16]: > 100 µM (inactive)
- GI50 [17]: > 100 µM (inactive)
- GI50 [18]: > 100 µM (inactive)
- GI50 [19]: > 100 µM (inactive)
- GI50 [20]: > 100 µM
- GI50 [21]: > 100 µM (inactive)
- GI50 [22]: > 100 µM (inactive)
- GI50 [23]: > 72.8 µM (inactive)
- GI50 [24]: > 100 µM (inactive)
- GI50 [25]: > 100 µM (inactive)
- GI50 [26]: > 100 µM (inactive)
- GI50 [27]: > 100 µM (inactive)
- GI50 [28]: > 100 µM (inactive)
- GI50 [29]: > 100 µM (inactive)
- GI50 [30]: > 83.8 µM (inactive)
- GI50 [31]: > 100 µM (inactive)
- GI50 [32]: > 100 µM (inactive)
- GI50 [33]: > 100 µM (inactive)
- GI50 [34]: > 100 µM (inactive)
- GI50 [57]: > 73.6 µM (inactive)
- GI50 [35]: > 100 µM (inactive)
- GI50 [36]: > 100 µM (inactive)
- GI50 [37]: 76.2 µM (inactive)
- GI50 [38]: > 100 µM (inactive)
- GI50 [39]: > 100 µM (inactive)
- GI50 [40]: > 100 µM (inactive)
- GI50 [58]: > 100 µM (inactive)
- GI50 [41]: > 100 µM (inactive)
- GI50 [42]: > 100 µM (inactive)
- GI50 [43]: > 100 µM (inactive)
- GI50 [44]: > 100 µM (inactive)
- GI50 [45]: > 100 µM (inactive)
- GI50 [46]: > 100 µM (inactive)
- GI50 [47]: > 100 µM (inactive)
- GI50 [48]: > 100 µM (inactive)
- GI50 [59]: > 100 µM (inactive)
- GI50 [50]: > 100 µM (inactive)
- GI50 [51]: > 100 µM (inactive)
- GI50 [52]: > 100 µM (inactive)
- GI50 [53]: > 100 µM (inactive)
- GI50 [54]: > 100 µM (inactive)
- GI50 [55]: > 100 µM (inactive)
